The values below come from article PMC8775380, “A Complexed Crystal Structure of a Single-Stranded DNA-Binding Protein with Quercetin and the Structural Basis of Flavonol Inhibition Specificity” (International Journal of Molecular Sciences, 2022).

The IC50 is the concentration that inhibits the measured activity by half.

Data set [1] deals with T1, Pseudomonas aeruginosa single-stranded DNA-binding protein (PaSSB) (Pseudomonas aeruginosa, UniProt P40947).
T1 sequence (P40947 2-165): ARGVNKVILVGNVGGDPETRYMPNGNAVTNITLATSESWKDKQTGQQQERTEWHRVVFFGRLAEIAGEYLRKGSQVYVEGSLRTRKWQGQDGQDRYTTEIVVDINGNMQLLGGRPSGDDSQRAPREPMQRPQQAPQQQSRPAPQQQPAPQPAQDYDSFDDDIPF
The data set can be described thus: EMSA, inhibition of PaSSB binding to biotin-labeled dT35 ssDNA. Further details: gene ssb; purified recombinant PaSSB. The class given is biochemical. (A gel shift assay detects complexes by their altered migration in electrophoresis.)

The target in data set [2] is T1, Pseudomonas aeruginosa single-stranded DNA-binding protein (PaSSB). The data set can be described thus: X-ray crystal structure of the complex, […] Å. Further details: gene ssb; recombinant PaSSB; amino acids 114–165 not observed in the structure.
Data set [3] has as its target PaSSB (single-stranded DNA-binding protein) (Pseudomonas aeruginosa, UniProt P40947 1-165). Nature of the data set: EMSA; no flavonol; protein concentration at 50% bound; EMSA: 40 mM Tris-HCl pH 7.5, 50 mM NaCl, 37 °C 60 min, DNA 30 fmol/uL, PaSSB 0-5 uM; 8% native PAGE in TBE; flavonols dissolved in 10% DMSO. The settings on record: protein: recombinant; chain copies: 4; label: biotin (3' in Results, 5' in Methods); single strand.

Regarding `O=c1c(O)c(-c2cc(O)c(O)c(O)c2)oc2cc(O)cc(O)c12` [myricetin], the IC50 in data set [1] was 2.8 ± 0.4 µM.

Regarding `O=c1c(O)c(-c2ccc(O)c(O)c2)oc2cc(O)cc(O)c12` [quercetin], the “X-ray crystal structure of the complex, 2.32 Å” value in data set [2] was “The electron density of quercetin was well-defined and indicated the presence of quercetin in the structure of PaSSB”.

TTTTTTTTTTTTTTTTTTTTTTTTTTTTTTTTTTT (ssDNA) [dT35]: the “apparent K (half saturation)” value in data set [3] stood at 548 ± 36 nM.
